Data on 1 compound can be found in patent publication US20260207585A1, “METHODS AND COMPOSITIONS FOR THE TREATMENT OF PARKINSON'S DISEASE, HUNTINGTON'S DISEASE, AMYOTROPHIC LATERAL SCLEROSIS, AND LEARNING DISORDERS” (Cedars-Sinai Medical Center, priority 2022, published 2026).

Assay [1] concerns PSD95. The assay is described as follows: PSD95 irradiance in brain. The note with it: mouse, in vivo. On the set-up: species or system mice.
Assay [2] relates to BDNF and VGF pathways. Briefly: Gene expression in treated mice (BDNF and VGF pathways). Type of assay: in vivo. The note with it: mice treated with ETP69 vs DMSO. How it is done:
Gene expression was measured in mice treated with ETP69 and DMSO. As depicted in FIG. 3, genes in the BDNF and VGF pathways were activated. These pathways are consistent with protective neurotrophic support. This pathway correlates with reduced H3K9me3 and improved cognition. FIG. 4A depicts genes in the BDNF pathway inhibited (left) and activated (right) by ETP69. The inactivated genes are quantified in FIGS. 4B-4F. The activated genes are quantified in FIGS. 4G-4M.

Assay [3] deals with T1, SUV39H1 (Homo sapiens, UniProt O43463).
T1 sequence (O43463 1-412): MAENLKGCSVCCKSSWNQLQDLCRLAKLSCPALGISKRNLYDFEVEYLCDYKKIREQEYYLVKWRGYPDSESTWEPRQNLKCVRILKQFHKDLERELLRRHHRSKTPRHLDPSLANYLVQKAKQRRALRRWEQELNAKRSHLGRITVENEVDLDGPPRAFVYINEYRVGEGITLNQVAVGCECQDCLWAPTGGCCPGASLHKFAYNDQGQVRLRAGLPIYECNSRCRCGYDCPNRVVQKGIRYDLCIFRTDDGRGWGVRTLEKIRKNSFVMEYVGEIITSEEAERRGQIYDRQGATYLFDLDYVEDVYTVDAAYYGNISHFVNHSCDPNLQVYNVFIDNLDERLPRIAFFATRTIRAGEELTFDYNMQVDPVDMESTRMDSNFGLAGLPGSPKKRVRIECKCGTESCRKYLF
The assay is described as follows: Methyltransferase inhibition panel: SUV39H1. Type of assay: biochemical. As to the method: (§1) The ability of ETP69 to inhibit methyltransferases was tested.

The target in assay [4] is T2, SET8 (Homo sapiens, UniProt Q9NQR1).
T2 sequence (Q9NQR1 1-393): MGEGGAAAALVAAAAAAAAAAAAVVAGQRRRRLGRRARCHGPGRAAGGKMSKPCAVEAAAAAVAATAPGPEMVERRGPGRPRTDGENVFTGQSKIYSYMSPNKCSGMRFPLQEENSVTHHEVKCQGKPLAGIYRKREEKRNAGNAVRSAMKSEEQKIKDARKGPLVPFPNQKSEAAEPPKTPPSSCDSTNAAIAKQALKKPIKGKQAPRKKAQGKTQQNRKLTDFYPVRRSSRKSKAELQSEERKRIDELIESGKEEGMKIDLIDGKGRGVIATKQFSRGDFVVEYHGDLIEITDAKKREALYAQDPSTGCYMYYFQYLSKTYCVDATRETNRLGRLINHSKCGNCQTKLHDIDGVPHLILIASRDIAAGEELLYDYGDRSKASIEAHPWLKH
Briefly: Methyltransferase inhibition panel: SET8. The format is biochemical. How it is done: as §1

The target of assay [5] is DNMT1 (Homo sapiens, UniProt P26358). The assay is described as follows: Methyltransferase inhibition panel: DNMT1. The format is biochemical. As to the method: as §1
DNMT1, sequence (P26358 whole entry): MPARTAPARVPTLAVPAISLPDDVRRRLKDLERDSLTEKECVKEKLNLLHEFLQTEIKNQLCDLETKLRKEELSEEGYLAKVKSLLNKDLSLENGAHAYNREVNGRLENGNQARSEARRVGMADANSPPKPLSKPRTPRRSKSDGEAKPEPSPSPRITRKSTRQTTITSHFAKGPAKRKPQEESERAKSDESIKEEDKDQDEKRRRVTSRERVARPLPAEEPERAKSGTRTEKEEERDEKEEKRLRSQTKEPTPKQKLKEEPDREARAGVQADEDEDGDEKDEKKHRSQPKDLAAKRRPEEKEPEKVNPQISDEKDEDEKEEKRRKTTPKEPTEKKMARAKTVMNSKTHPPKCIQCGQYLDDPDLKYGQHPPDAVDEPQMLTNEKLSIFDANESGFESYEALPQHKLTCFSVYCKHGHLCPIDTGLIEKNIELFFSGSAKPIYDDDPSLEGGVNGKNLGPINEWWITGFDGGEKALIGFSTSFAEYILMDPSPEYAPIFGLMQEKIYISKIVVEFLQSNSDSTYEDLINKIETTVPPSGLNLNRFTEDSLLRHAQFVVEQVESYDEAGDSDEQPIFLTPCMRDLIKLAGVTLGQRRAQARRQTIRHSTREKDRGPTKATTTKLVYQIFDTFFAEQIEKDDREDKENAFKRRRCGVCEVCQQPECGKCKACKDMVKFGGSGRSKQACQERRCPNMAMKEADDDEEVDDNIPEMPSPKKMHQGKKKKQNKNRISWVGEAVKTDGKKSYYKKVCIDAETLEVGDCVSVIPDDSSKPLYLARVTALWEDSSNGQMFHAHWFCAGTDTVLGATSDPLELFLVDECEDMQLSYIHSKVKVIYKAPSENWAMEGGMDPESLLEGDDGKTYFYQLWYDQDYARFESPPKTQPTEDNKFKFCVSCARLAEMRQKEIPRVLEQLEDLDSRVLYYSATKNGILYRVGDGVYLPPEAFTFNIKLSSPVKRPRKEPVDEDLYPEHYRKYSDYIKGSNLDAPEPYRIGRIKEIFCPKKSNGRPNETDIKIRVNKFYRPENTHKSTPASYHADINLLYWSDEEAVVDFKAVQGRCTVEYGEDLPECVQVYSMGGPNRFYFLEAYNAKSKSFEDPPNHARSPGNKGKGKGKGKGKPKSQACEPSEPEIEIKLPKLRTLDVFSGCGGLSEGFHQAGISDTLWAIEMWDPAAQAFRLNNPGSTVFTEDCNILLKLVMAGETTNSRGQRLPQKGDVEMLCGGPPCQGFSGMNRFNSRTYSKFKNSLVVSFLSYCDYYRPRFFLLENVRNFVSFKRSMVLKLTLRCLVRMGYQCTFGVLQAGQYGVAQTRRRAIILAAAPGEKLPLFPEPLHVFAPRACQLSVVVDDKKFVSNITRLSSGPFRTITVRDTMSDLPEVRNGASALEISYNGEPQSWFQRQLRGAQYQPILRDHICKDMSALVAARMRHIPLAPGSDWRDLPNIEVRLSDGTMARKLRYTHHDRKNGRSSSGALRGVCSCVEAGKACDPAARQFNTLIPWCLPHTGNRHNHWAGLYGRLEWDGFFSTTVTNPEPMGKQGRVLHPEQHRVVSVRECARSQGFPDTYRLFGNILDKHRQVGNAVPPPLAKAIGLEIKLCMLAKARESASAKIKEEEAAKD
For assay [6], the target named is T3, NSD2 (Homo sapiens, UniProt O96028).
T3 sequence (O96028 1-1365): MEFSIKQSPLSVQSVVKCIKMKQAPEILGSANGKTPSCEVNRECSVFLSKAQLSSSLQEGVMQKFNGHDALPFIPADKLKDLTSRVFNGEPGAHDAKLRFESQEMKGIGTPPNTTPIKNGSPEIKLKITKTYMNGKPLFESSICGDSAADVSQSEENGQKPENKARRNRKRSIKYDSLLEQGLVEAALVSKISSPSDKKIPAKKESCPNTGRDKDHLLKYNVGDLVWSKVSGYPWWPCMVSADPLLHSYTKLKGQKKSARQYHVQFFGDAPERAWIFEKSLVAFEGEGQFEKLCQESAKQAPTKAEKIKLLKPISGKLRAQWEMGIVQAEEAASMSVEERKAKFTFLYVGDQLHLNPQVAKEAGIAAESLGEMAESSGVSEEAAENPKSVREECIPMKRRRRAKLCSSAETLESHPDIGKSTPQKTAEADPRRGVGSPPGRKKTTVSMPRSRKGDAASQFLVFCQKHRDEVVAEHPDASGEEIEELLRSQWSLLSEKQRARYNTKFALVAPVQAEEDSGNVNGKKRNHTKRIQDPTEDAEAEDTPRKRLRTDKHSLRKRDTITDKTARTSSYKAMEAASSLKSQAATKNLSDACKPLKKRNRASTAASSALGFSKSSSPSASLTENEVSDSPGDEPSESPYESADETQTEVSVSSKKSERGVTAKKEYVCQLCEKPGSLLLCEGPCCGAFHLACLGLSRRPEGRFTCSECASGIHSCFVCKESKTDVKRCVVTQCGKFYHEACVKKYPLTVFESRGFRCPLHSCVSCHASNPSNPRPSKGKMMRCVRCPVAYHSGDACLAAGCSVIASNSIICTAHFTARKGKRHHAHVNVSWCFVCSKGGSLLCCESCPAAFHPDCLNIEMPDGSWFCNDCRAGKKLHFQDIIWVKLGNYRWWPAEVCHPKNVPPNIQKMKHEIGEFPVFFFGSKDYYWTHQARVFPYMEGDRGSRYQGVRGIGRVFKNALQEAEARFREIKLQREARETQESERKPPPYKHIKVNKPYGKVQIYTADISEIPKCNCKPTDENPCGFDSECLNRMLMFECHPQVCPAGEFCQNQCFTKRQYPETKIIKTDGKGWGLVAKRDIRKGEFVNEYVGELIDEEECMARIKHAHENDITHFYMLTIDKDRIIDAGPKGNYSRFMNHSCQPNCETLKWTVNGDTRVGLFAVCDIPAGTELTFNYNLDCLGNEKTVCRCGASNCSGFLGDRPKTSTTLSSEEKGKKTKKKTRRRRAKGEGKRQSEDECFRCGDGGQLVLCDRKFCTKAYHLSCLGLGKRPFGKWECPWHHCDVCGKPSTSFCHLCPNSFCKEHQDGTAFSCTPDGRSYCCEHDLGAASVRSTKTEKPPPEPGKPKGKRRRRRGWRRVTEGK
Briefly: Methyltransferase inhibition panel: NSD2. The format is biochemical. How it is done: as §1

The target in assay [7] is T4, NRMT1 (Homo sapiens, UniProt Q9BV86).
T4 sequence (Q9BV86 1-223): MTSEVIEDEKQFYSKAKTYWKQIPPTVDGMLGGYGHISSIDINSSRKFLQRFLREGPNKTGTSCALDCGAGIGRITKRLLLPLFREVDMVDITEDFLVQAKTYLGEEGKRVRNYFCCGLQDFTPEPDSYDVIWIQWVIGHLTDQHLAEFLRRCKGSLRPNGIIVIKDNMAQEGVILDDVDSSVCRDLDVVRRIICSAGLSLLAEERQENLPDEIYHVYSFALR
Briefly: Methyltransferase inhibition panel: NRMT1. Type of assay: biochemical. As to the method:
as §1

Setting [8] is: read-out: Enzyme % Activity (relative to DMSO controls) Data 1.
Setting [9] is: read-out: Enzyme % Activity (relative to DMSO controls) Data 2.

Read-outs that look alike come from different tables or passages of the source.

In the case of `CN1C(=O)[C@@]23C[C@](C)(C#N)[C@H](c4ccc5c(c4)OCO5)N2C(=O)[C@]1(C)SS3` (racemic) [ETP69, Rac-(3S,6S,7S,8aS)-6-(benzo[d][1,3]dioxol-5-yl)-2,3,7-trimethyl-1,4-dioxohexahydro-6H-3,8a-epidithiopyrrolo[1,2-a]pyrazine-7-carbonitrile], the “expression of PSD95 irradiance” value in assay [1] is reported as “increased”. Besides, the “genes in the BDNF and VGF pathways” value in assay [2] is reported as “activated”. Moreover, the remaining activity at 20 µM in assay [3] (setting [8]) was 2.36%; in assay [3] (setting [9]) it was 2.53%; in assay [4] (setting [8]), 92.3%; in assay [4] (setting [9]) it was 92.6%; in assay [5] (setting [8]), 105%; in assay [5] (setting [9]) it was 108%. Moreover, the remaining activity at 20 µM came out at 20% in assay [6] (setting [8]), 19.9% in assay [6] (setting [9]), 90.5% in assay [7] (setting [8]) and 94.6% in assay [7] (setting [9]). Also, the “inhibition relative to DMSO controls” value in assay [3] (summary of Table 1) and in assay [6] (summary of Table 1) was “at least 7500” in each case.
